According to PubChem BioAssay (NCI):
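Where inhibition never reached the appropriate level, the endpoint shown equals the highest concentration tested. Otherwise, values were interpolated linearly from a five-concentration, 48-hour dose response in 96-well plates. TGI marks complete inhibition of growth.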 Where a SMILES comes first, the peptide text is derived from it. The star is where a group is joined. Boc = CC(C)(C)OC(=O)*

Columns and labels:
Assay in all cases: NCI tumour cell line growth inhibition, 48 h
SR leukemia = system: SR leukemia
HOP-92 NSCLC = system: HOP-92 NSCLC
SK-MEL-28 melanoma = system: SK-MEL-28 melanoma
NCI-H226 lung = system: NCI-H226 lung
HT29 colon = system: HT29 colon
SNB-19 CNS = system: SNB-19 CNS
LOX IMVI melanoma = system: LOX IMVI melanoma
SF-268 CNS = system: SF-268 CNS
NCI-H23 lung = system: NCI-H23 lung
SF-539 CNS = system: SF-539 CNS
OVCAR-3 ovarian = system: OVCAR-3 ovarian
SN12C renal = system: SN12C renal
NCI-H460 lung = system: NCI-H460 lung
RPMI-8226 leukemia = system: RPMI-8226 leukemia
SNB-78 CNS = system: SNB-78 CNS
SF-295 CNS = system: SF-295 CNS
RXF 393 renal = system: RXF 393 renal
DLD-1 colon = system: DLD-1 colon
KM20L2 colon = system: KM20L2 colon
KM12 colon = system: KM12 colon
NCI-H522 lung = system: NCI-H522 lung
OVCAR-4 ovarian = system: OVCAR-4 ovarian
EKVX NSCLC = system: EKVX NSCLC
RXF-631 renal = system: RXF-631 renal
786-0 renal = system: 786-0 renal
LXFL 529 NSCLC = system: LXFL 529 NSCLC
UO-31 renal = system: UO-31 renal
COLO 205 colon = system: COLO 205 colon
TK-10 renal = system: TK-10 renal
DMS 114 small cell lung = system: DMS 114 small cell lung
IGROV1 ovarian = system: IGROV1 ovarian
OVCAR-8 ovarian = system: OVCAR-8 ovarian
A549 NSCLC = system: A549 NSCLC
OVCAR-5 ovarian = system: OVCAR-5 ovarian
MOLT-4 leukemia = system: MOLT-4 leukemia
HCT-15 colon = system: HCT-15 colon
SK-MEL-2 melanoma = system: SK-MEL-2 melanoma
M19-MEL melanoma = system: M19-MEL melanoma
K-562 leukemia = system: K-562 leukemia
HOP-62 NSCLC = system: HOP-62 NSCLC
ACHN renal = system: ACHN renal
MALME-3M melanoma = system: MALME-3M melanoma
SW-620 colon = system: SW-620 colon
HCC-2998 colon = system: HCC-2998 colon
SNB-75 CNS = system: SNB-75 CNS
U251 CNS = system: U251 CNS
HOP-18 NSCLC = system: HOP-18 NSCLC
HL-60(TB) leukemia = system: HL-60(TB) leukemia
A498 renal = system: A498 renal
HCT-116 colon = system: HCT-116 colon
XF 498 CNS = system: XF 498 CNS
SK-OV-3 ovarian = system: SK-OV-3 ovarian
CCRF-CEM leukemia = system: CCRF-CEM leukemia
UACC-257 melanoma = system: UACC-257 melanoma
M14 melanoma = system: M14 melanoma
UACC-62 melanoma = system: UACC-62 melanoma
CAKI-1 renal = system: CAKI-1 renal
SK-MEL-5 melanoma = system: SK-MEL-5 melanoma
DMS 273 small cell lung = system: DMS 273 small cell lung

## O=c1nc(NC(c2ccccc2)(c2ccccc2)c2ccccc2)ccn1CCCl
SR leukemia
  TGI: 49.5 µM
HOP-92 NSCLC
  TGI: 27.6 µM
SK-MEL-28 melanoma
  TGI: 28.6 µM
NCI-H226 lung
  TGI: 42.8 µM
HT29 colon
  TGI: 35 µM
SNB-19 CNS
  TGI: 28.9 µM
LOX IMVI melanoma
  TGI: 31.8 µM
SF-268 CNS
  TGI: 34.1 µM
NCI-H23 lung
  TGI: 56 µM
SF-539 CNS
  TGI: 31.7 µM
OVCAR-3 ovarian
  TGI: 27.6 µM
SN12C renal
  TGI: 33 µM
NCI-H460 lung
  TGI: 36.4 µM
RPMI-8226 leukemia
  TGI: 55.7 µM
SNB-78 CNS
  TGI: 86.7 µM
SF-295 CNS
  TGI: 42.9 µM
RXF 393 renal
  TGI: 30.8 µM
DLD-1 colon
  TGI: > 100 µM
KM20L2 colon
  TGI: 33 µM
KM12 colon
  TGI: 31.2 µM
NCI-H522 lung
  TGI: 41.4 µM
OVCAR-4 ovarian
  TGI: 53.1 µM
EKVX NSCLC
  TGI: 61 µM
RXF-631 renal
  TGI: 97.4 µM
786-0 renal
  TGI: 32 µM
LXFL 529 NSCLC
  TGI: 26.4 µM
UO-31 renal
  TGI: > 100 µM
COLO 205 colon
  TGI: 64.7 µM
TK-10 renal
  TGI: 56.2 µM
DMS 114 small cell lung
  TGI: 37.9 µM
IGROV1 ovarian
  TGI: 48.1 µM
OVCAR-8 ovarian
  TGI: 29.7 µM
A549 NSCLC
  TGI: > 100 µM
OVCAR-5 ovarian
  TGI: 82.4 µM
MOLT-4 leukemia
  TGI: 42.3 µM
HCT-15 colon
  TGI: > 100 µM
SK-MEL-2 melanoma
  TGI: 29.9 µM
M19-MEL melanoma
  TGI: 40.5 µM
K-562 leukemia
  TGI: 63.3 µM
HOP-62 NSCLC
  TGI: 40.9 µM
ACHN renal
  TGI: 99 µM
MALME-3M melanoma
  TGI: 29.2 µM
SW-620 colon
  TGI: 48.6 µM
HCC-2998 colon
  TGI: 28 µM
SNB-75 CNS
  TGI: 41.8 µM
U251 CNS
  TGI: 28.7 µM
HOP-18 NSCLC
  TGI: 72.1 µM
HL-60(TB) leukemia
  TGI: 54.9 µM
A498 renal
  TGI: > 100 µM
HCT-116 colon
  TGI: 37.1 µM
XF 498 CNS
  TGI: 27.1 µM

## Cc1cc(C)nc(NS(=O)(=O)c2ccc(Nc3c4ccccc4nc4c(C(=O)Nc5ccc(S(=O)(=O)Nc6cc(C)on6)cc5)ccc(Cl)c34)cc2)n1
SR leukemia
  TGI: 53.8 µM
SK-OV-3 ovarian
  TGI: > 100 µM
SK-MEL-28 melanoma
  TGI: 69.4 µM
HT29 colon
  TGI: 47.8 µM
SNB-19 CNS
  TGI: 48.9 µM
LOX IMVI melanoma
  TGI: > 100 µM
SF-268 CNS
  TGI: > 100 µM
NCI-H23 lung
  TGI: 59.7 µM
SF-539 CNS
  TGI: 53 µM
OVCAR-3 ovarian
  TGI: 31.3 µM
SN12C renal
  TGI: 63 µM
NCI-H460 lung
  TGI: 61.3 µM
RPMI-8226 leukemia
  TGI: 57.8 µM
SNB-78 CNS
  TGI: > 100 µM
SF-295 CNS
  TGI: 44.8 µM
RXF 393 renal
  TGI: 32.7 µM
DLD-1 colon
  TGI: 33.3 µM
KM20L2 colon
  TGI: 35.4 µM
KM12 colon
  TGI: 37.1 µM
NCI-H522 lung
  TGI: 51.4 µM
CCRF-CEM leukemia
  TGI: 71 µM
OVCAR-4 ovarian
  TGI: 65.3 µM
EKVX NSCLC
  TGI: 62.5 µM
RXF-631 renal
  TGI: 64.6 µM
786-0 renal
  TGI: 34.1 µM
LXFL 529 NSCLC
  TGI: 42.4 µM
UO-31 renal
  TGI: 45.3 µM
TK-10 renal
  TGI: > 100 µM
OVCAR-8 ovarian
  TGI: > 100 µM
OVCAR-5 ovarian
  TGI: 44.6 µM
MOLT-4 leukemia
  TGI: 49.1 µM
HCT-15 colon
  TGI: > 100 µM
M19-MEL melanoma
  TGI: > 100 µM
UACC-257 melanoma
  TGI: 91.3 µM
K-562 leukemia
  TGI: > 100 µM
HOP-62 NSCLC
  TGI: 42.5 µM
ACHN renal
  TGI: > 100 µM
MALME-3M melanoma
  TGI: 86.5 µM
HCC-2998 colon
  TGI: 32.6 µM
SNB-75 CNS
  TGI: 84.1 µM
U251 CNS
  TGI: 30.9 µM
M14 melanoma
  TGI: 44 µM
A498 renal
  TGI: 38.3 µM
HCT-116 colon
  TGI: 40.5 µM
UACC-62 melanoma
  TGI: 80.1 µM
XF 498 CNS
  TGI: 36.2 µM

## O=C(NC12CC3CC(CC(C3)C1)C2)C(=O)c1c[nH]c2ccc(Br)cc12
SR leukemia
  TGI: 29.6 µM
HOP-92 NSCLC
  TGI: 48.1 µM
SK-OV-3 ovarian
  TGI: 60.8 µM
SK-MEL-28 melanoma
  TGI: > 100 µM
CAKI-1 renal
  TGI: > 100 µM
NCI-H226 lung
  TGI: 41.8 µM
HT29 colon
  TGI: 14.4 µM
SNB-19 CNS
  TGI: 95.6 µM
LOX IMVI melanoma
  TGI: 18.4 µM
SF-268 CNS
  TGI: 34.2 µM
NCI-H23 lung
  TGI: > 100 µM
SF-539 CNS
  TGI: 51.3 µM
OVCAR-3 ovarian
  TGI: 38.6 µM
SN12C renal
  TGI: 61.2 µM
NCI-H460 lung
  TGI: 27 µM
SK-MEL-5 melanoma
  TGI: > 100 µM
RPMI-8226 leukemia
  TGI: > 100 µM
SNB-78 CNS
  TGI: > 100 µM
SF-295 CNS
  TGI: 19.8 µM
RXF 393 renal
  TGI: 6.39 µM
DLD-1 colon
  TGI: 89 µM
KM20L2 colon
  TGI: > 100 µM
KM12 colon
  TGI: 41.7 µM
NCI-H522 lung
  TGI: > 100 µM
CCRF-CEM leukemia
  TGI: > 100 µM
DMS 273 small cell lung
  TGI: 17.6 µM
OVCAR-4 ovarian
  TGI: 35.5 µM
EKVX NSCLC
  TGI: > 100 µM
786-0 renal
  TGI: 20.5 µM
LXFL 529 NSCLC
  TGI: 37.3 µM
UO-31 renal
  TGI: > 100 µM
COLO 205 colon
  TGI: 45.1 µM
TK-10 renal
  TGI: 92.6 µM
DMS 114 small cell lung
  TGI: > 100 µM
IGROV1 ovarian
  TGI: > 100 µM
OVCAR-8 ovarian
  TGI: 87.3 µM
A549 NSCLC
  TGI: 42.4 µM
OVCAR-5 ovarian
  TGI: > 100 µM
MOLT-4 leukemia
  TGI: 44.2 µM
HCT-15 colon
  TGI: > 100 µM
SK-MEL-2 melanoma
  TGI: > 100 µM
UACC-257 melanoma
  TGI: > 100 µM
K-562 leukemia
  TGI: 47.2 µM
ACHN renal
  TGI: > 100 µM
MALME-3M melanoma
  TGI: 68.6 µM
SW-620 colon
  TGI: > 100 µM
HCC-2998 colon
  TGI: > 100 µM
SNB-75 CNS
  TGI: 28.2 µM
U251 CNS
  TGI: 49.2 µM
HOP-18 NSCLC
  TGI: 44.1 µM
M14 melanoma
  TGI: 31.4 µM
HL-60(TB) leukemia
  TGI: > 100 µM
HCT-116 colon
  TGI: 45.7 µM
UACC-62 melanoma
  TGI: > 100 µM

## CSCCC(NC(=O)C(CC(C)C)NC(=O)C1CCCN1C(=O)C(Cc1ccccc1)NC(=O)C(Cc1ccccc1)NC(=O)C(CCC(=O)O)NC(=O)OC(C)(C)C)C(N)=O (stereo unspecified) (Boc-EFFPLM-NH2; configuration not given here)
SR leukemia
  TGI: > 100 µM
HOP-92 NSCLC
  TGI: > 100 µM
SK-OV-3 ovarian
  TGI: > 100 µM
SK-MEL-28 melanoma
  TGI: > 100 µM
CAKI-1 renal
  TGI: > 100 µM
NCI-H226 lung
  TGI: > 100 µM
LOX IMVI melanoma
  TGI: > 100 µM
SF-268 CNS
  TGI: > 100 µM
NCI-H23 lung
  TGI: > 100 µM
SF-539 CNS
  TGI: > 100 µM
SN12C renal
  TGI: > 100 µM
NCI-H460 lung
  TGI: > 100 µM
RPMI-8226 leukemia
  TGI: > 100 µM
SNB-78 CNS
  TGI: > 100 µM
DLD-1 colon
  TGI: > 100 µM
NCI-H522 lung
  TGI: > 100 µM
CCRF-CEM leukemia
  TGI: > 100 µM
DMS 273 small cell lung
  TGI: > 100 µM
OVCAR-4 ovarian
  TGI: > 100 µM
RXF-631 renal
  TGI: > 100 µM
786-0 renal
  TGI: > 100 µM
LXFL 529 NSCLC
  TGI: > 100 µM
UO-31 renal
  TGI: > 100 µM
COLO 205 colon
  TGI: > 100 µM
DMS 114 small cell lung
  TGI: > 100 µM
IGROV1 ovarian
  TGI: > 100 µM
MOLT-4 leukemia
  TGI: > 100 µM
SK-MEL-2 melanoma
  TGI: > 100 µM
M19-MEL melanoma
  TGI: > 100 µM
K-562 leukemia
  TGI: > 100 µM
HOP-62 NSCLC
  TGI: > 100 µM
MALME-3M melanoma
  TGI: > 100 µM
HCC-2998 colon
  TGI: > 100 µM
SNB-75 CNS
  TGI: > 100 µM
M14 melanoma
  TGI: > 100 µM
HL-60(TB) leukemia
  TGI: > 100 µM
A498 renal
  TGI: > 100 µM
HCT-116 colon
  TGI: > 100 µM
UACC-62 melanoma
  TGI: > 100 µM
XF 498 CNS
  TGI: > 100 µM
